Data set [1] relates to T. brucei brucei (bloodstream form strain 427). The data set is described as follows: T. brucei growth inhibition assay. In kind it is cell-based. The note with it: Trypanosoma brucei, read-out: EC50 (growth of T. brucei in cell culture). From the text: T. brucei brucei (bloodstream form strain 427 from K. Stuart, Seattle BioMed, Seattle, WA) were used for EC50 measurements as previously described, [14].

A further data set addresses T1, TbMetRS (Trypanosoma brucei brucei, UniProt Q38C91).
T1 construct: hexa-histidine tag (3C protease site) (N, cleaved yes); made in house; host or cells: E. coli
T1 sequence (Q38C91 1-773): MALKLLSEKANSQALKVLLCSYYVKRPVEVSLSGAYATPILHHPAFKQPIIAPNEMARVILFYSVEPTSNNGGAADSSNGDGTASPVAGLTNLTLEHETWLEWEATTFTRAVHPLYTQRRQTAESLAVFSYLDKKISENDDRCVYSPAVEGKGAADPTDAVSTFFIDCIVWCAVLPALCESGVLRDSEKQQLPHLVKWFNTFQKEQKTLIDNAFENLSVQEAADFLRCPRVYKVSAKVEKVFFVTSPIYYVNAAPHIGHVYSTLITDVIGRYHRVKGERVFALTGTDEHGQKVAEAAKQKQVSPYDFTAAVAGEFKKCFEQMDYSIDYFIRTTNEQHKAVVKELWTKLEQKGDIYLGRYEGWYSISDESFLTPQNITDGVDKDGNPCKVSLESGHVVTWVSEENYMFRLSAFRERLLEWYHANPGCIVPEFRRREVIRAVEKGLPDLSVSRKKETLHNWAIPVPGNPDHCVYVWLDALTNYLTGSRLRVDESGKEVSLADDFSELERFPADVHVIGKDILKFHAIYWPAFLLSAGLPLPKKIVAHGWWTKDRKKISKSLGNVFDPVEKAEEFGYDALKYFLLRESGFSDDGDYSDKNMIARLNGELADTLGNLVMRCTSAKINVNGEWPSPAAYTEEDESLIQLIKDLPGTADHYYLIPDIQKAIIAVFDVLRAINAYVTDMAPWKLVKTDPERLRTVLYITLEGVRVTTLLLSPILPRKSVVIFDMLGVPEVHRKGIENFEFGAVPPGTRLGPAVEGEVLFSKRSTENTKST
The data set is described as follows: Thermal melt of TbMetRS with combinations of ligands (Chem 1433, ATP, AMPPCP, Mg2+). The note with it: for change in Tm of TbMetRS in the presence of the nucleotide and Mg2+: compared to TbMetRS only, no inhibitor. The format is binding. As for the experimental part:
Thermal melt experiments on TbMetRS in the presence of different combinations of ligands were performed to determine the nature of the interactions between Chem 1433 and ATP when they are bound to TbMetRS. A similar analysis has been used to establish synergism between an inhibitor of human ProRS, halofuginone, and ATP [25]. An increase in Tm of the TbMetRS•1433 complex upon adding ATP may be an indication of synergism between Chem 1433 and ATP in binding. […] Instead, the addition of ATP-Mg^2+ or AMPPCP-Mg^2+ to the complex of the TbMetRS•Chem 1433 complex result in increase of Tm by an average of 1.6°C (n = 4, P<0.02) and 1.2°C (n = 4, P<0.05), respectively, compared to the Tm of TbMetRS•Chem 1433 alone (Figure S4).
(§1) Supplementary file pntd.0002775.s004.pdf: Figure S4 Thermal melting curves of Tb MetRS in the presence of different ligands. TbMetRS (0.1 mg/ml) is incubated in the presence of different ligands as indicated. The incubation temperature of the samples is increased from 20°C to 90°C and the fluorescence signal from the reporter dye (Sypro Orange) monitored. Melting temperatures (Tm) are calculated from the curves as the temperature where the first derivative value is maximal. The average Tm value of TbMetRS in the presence of Chem 1433, ATP and Mg^2+ (purple dash) is 1.6°C higher than the Tm of TbMetRS in the presence of Chem 1433 only (n = 4, P<0.02). The average Tm of TbMetRS in the presence of Chem 1433, AMPPCP and Mg^2+ (black dot) is 1.2°C higher than the Tm of TbMetRS in the presence of Chem 1433 only (n = 4, P<0.05). Changes in Tm of TbMetRS in the presence of ATP and Mg^2+ or AMPPCP and Mg^2+ compared to TbMetRS only are insignificant (P>0.3 and 0.8 respectively). (PDF) Click here for additional data file.
A typical thermal melting curves of TbMetRS in the presence of different ligands.
as §1, with “TbMetRS” for “Supplementary file pntd.0002775.s004.pdf: Figure S4 Thermal melting curves of Tb MetRS in the presence of different ligands. TbMetRS”, “Mg2+” for “Mg^2+”, “P < 0.02).” for “P<0.02).”, “P < 0.05).” for “P<0.05).”, “(P > 0.3” for “(P>0.3”, “respectively).” for “respectively). (PDF) Click here for additional data file.”
(1 picture or pasted object on this page, not shown here)

In data set [2] the target is T2, T. brucei methionyl-tRNA synthetase (TbMetRS) (Trypanosoma brucei brucei, UniProt Q38C91).
T2 construct: hexa-histidine tag (3C protease site) (N, cleaved yes); made in house; host or cells: E. coli
T2 sequence (Q38C91 1-773): T1 sequence (Q38C91 1-773)
The data set is described as follows: T. brucei methionyl-tRNA synthetase aminoacylation assay. The format is biochemical. The note with it: for IC50: read-out: IC50 (aminoacylation activity of purified TbMetRS). As for the experimental part:
Compound IC50s were determined in the T. brucei methionyl-tRNA synthetase aminoacylation assay as previously described, [14] except 10 U/mL of pyrophosphatase was used per reaction.

Data set [3] deals with Staphylococcus aureus MetRS. Details: method as in PMID 19015366. The note with it: physiological ATP 2500 µM versus 25 µM; cited from earlier work.
Details of data set [4]: method as in PMID 22720744. The note with it: cited from earlier work.
Another data set concerns T. brucei infection. More on the design: method as in PMID 22720744. The note with it: administered orally; cited from earlier work.
In data set [5] the target is T2, T. brucei methionyl-tRNA synthetase (TbMetRS). More on the design: method as in PMID 22720744. The note with it: previously reported ABI, used for comparison; read-out: IC50 of the ABI Chem 1312 against TbMetRS; cited from earlier work.
A further data set concerns MDR-1 MDCKII. The note with it: cited from earlier work.

Entries after “also recorded” stand apart in the source; their conditions may differ. Where two headings read alike, the source gives them in different places.

By EC50 is commonly meant the concentration giving half of the maximal effect. A word on the IC50: it is the concentration needed to halve the response being measured.

Turning to `O=C(NCCCNCc1cc(Cl)cc(Cl)c1)Nc1ccccc1O` [Chem 1392], the EC50 in data set [1] was 210 nM.

Consider `Nc1ncnc2c1ncn2C1OC(COP(=O)(O)OP(=O)(O)CP(=O)(O)O)C(O)C1O` (stereo not drawn) [AMPPCP, β,γ-methyleneadenosine 5′-triphosphate], for which, on TbMetRS, the “change in Tm of TbMetRS in the presence of the nucleotide and Mg2+” value is given as “does not change significantly; also recorded: insignificant”.

For the compound `O=C(NCCCNCc1cc(Cl)sc1Cl)Nc1ccsc1` [Chem 1509], the IC50 in data set [2] turned out to be 324 nM. The concentration for a half-maximal effect (EC50) in data set [1] is 2790 nM.

Turning to `C=C(F)c1sc(CNCCCNc2cc(O)c3ccccc3n2)c(C)c1Br` [REP8839], the “fold lower IC50 at 2500 µM ATP than at 25 µM ATP” value in data set [3] is given as 30- to 50 fold.

On to `COc1cc(Cl)cc(CNCCCNC(=O)Nc2ccsc2)c1` [Chem 1444], for which, in data set [2], the concentration for half-maximal inhibition (IC50) is 19 nM. Also, the EC50 in data set [1] turned out to be 150 nM.

Regarding `C=CCOc1c(CC=C)cc(Cl)cc1CNCCCNC(=O)Nc1ccsc1` [Chem 1475], the IC50 in data set [2] is 1230 nM. Besides, the concentration for a half-maximal effect (EC50) in data set [1] worked out at 1160 nM.

With `O=C(NCCCNCc1cc(Cl)cc(I)c1O)Nc1ccsc1` [Chem 1473], in data set [2], the IC50 is 316 nM. For the same compound, the EC50 in data set [1] is 3840 nM.

With `C=CCc1cc(Cl)cc(CNCCCNC(=O)Nc2ccsc2)c1OCc1ccccc1` [Chem 1476], the IC50 in data set [2] was 1680 nM. Moreover, in data set [1], the EC50 amounted to 1120 nM.

For `O=C(NCCCNCc1cc(Cl)cc(Cl)c1)Nc1cccc(O)c1` [Chem 1387], in data set [1], the 50% effective concentration (EC50) turned out to be 170 nM.

Regarding `C=CCc1cc(Cl)cc(CNCCCNC(=O)Nc2ccsc2)c1O` [Chem 1472], in data set [2], the IC50 worked out at 198 nM. In data set [1], the EC50 was found to be 5260 nM.

On to `CCOc1c(I)cc(Cl)cc1CNCCCNC(=O)Nc1ccsc1` [Chem 1469], for which the IC50 in data set [2] was > 10000 nM. For the same compound, in data set [1], the EC50 amounted to 9550 nM.

On to `O=C(NCCCNCc1cc(Cl)cc(Cl)c1)Nc1ccsc1` [Chem 1433], for which the “fold less favorable IC50 than Chem 1312” value in data set [2] (Chem 1433 (UBI) versus Chem 1312 (ABI)) was ~3.5 fold. In addition, in data set [2], the 50% inhibitory concentration (IC50) worked out at 28 nM. Besides, the EC50 in data set [1] came to 190 nM. On TbMetRS (compared to Tm of TbMetRS•Chem 1433 alone, n = 4, P<0.02, TbMetRS 0.1 mg/ml), the “increase of Tm on addition of ATP-Mg2+ to the TbMetRS•Chem 1433 complex” value came to 1.6 °C. In addition, the “increase of Tm on addition of AMPPCP-Mg2+ to the TbMetRS•Chem 1433 complex” value on TbMetRS (compared to Tm of TbMetRS•Chem 1433 alone, n = 4, P<0.05, TbMetRS 0.1 mg/ml) is 1.2 °C. Further, in data set [4], the “entry into the central nervous system” value was “enter the central nervous system” and the oral bioavailability result is listed as “reasonable oral bioavailability”. Also, the “activity against the parasite in a mouse model” value with T. brucei infection is “moderate activity; also recorded: suppressive activity”.

For `C#Cc1cccc(CNCCCNC(=O)Nc2ccsc2)c1` [Chem 1478], the IC50 in data set [2] is 96 nM. Besides, the concentration for a half-maximal effect (EC50) in data set [1] is 1060 nM.

As to `Nc1ncnc2c1ncn2[C@@H]1O[C@H](COP(=O)(O)OP(=O)(O)OP(=O)(O)O)[C@@H](O)[C@H]1O` [ATP], at TbMetRS, the “change in Tm of TbMetRS in the presence of the nucleotide and Mg2+” value is “does not change significantly; also recorded: insignificant”.

For `Oc1cc(NCCCNCc2cc(Cl)cc(Cl)c2)nc2ccccc12` [Chem 1312], the IC50 in data set [5] is 8 nM.

In the case of `Cc1sc2ccccc2c1CNCCCNC(=O)Nc1ccsc1` [Chem 1540], the IC50 in data set [2] worked out at 1360 nM. In addition, in data set [1], the 50% effective concentration (EC50) was 9410 nM.

For the compound `COc1cc(Cl)cc(CNCCCNC(=O)Nc2ccccc2)c1` [Chem 1415], the IC50 in data set [2] was 45 nM. In data set [1], the EC50 stood at 267 nM.

With `O=C(NCCCNCc1cc(Cl)cc(Cl)c1)Nc1ccccc1` [Chem 1356], the IC50 in data set [2] was found to be 57 nM. For the same compound, the EC50 in data set [1] was found to be 357 nM. In addition, in data set [4], the “entry into the central nervous system” value is given as “enter the central nervous system” and the oral bioavailability entry is given as “reasonable oral bioavailability”. In addition, the “activity against the parasite in a mouse model” value in the data set with T. brucei infection is “suppressive activity”. In addition, the membrane permeability result in the data set with MDR-1 MDCKII is given as “excellent membrane permeability”.
